Results: patent EP4603105A1, “PHARMACEUTICAL COMPOSITION CONTAINING CYCLIC COMPOUND HAVING SELECTIVE KRAS INHIBITORY EFFECT AGAINST HRAS AND NRAS” (CHUGAI SEIYAKU KABUSHIKI KAISHA, priority 2022, dated 2024)
Like-named read-outs stand apart in the source and are kept apart here.

How the values were obtained:
HRAS wild-type protein = HRAS wild-type protein (Homo sapiens, UniProt P01112); assay: Binding to HRAS by surface plasmon resonance (SPR), KD and KD ratio to KRAS
Summary of the method: (§1)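 Recombinant RAS proteins bearing a biotinylated Avi tag and loaded with GDP served as the captured ligand, recaptured fresh every cycle. Binding responses were referenced to an uncoated surface and a buffer-only blank cycle. Dissociation constants were obtained by 1:1 model fitting at 30°C.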

[1] = test system: human lung cancer strain NCI-H441; assay: NCI-H441 cell proliferation inhibitory activity (CellTiter-Glo, 4 days); assay type: cell-based; conditions: read-out: NCl-H441 IC50
Summary of the method: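 Signal came from […] measured per well once the reagent was added. Beforehand, cells were cultured at 37°C and 5% carbon dioxide on a compound series serially diluted in dimethyl sulfoxide.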

[2] = biological target: GDP-bound NRAS wild-type protein (Homo sapiens, UniProt P01111); assay: Binding to NRAS by surface plasmon resonance (SPR), KD and KD ratio to KRAS
Chain of GDP-bound NRAS wild-type protein (P01111 whole entry): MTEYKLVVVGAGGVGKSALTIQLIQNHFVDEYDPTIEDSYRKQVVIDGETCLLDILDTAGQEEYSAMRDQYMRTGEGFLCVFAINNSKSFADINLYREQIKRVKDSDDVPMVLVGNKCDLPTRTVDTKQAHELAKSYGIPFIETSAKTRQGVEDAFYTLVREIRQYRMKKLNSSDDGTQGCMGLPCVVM
Summary of the method: as §1

[3] = biological target: GDP-bound KRAS wild-type protein (Homo sapiens, UniProt P01116); assay: Binding to KRAS by surface plasmon resonance (SPR), dissociation constant KD
Chain of GDP-bound KRAS wild-type protein (P01116 1-188 isoform P01116-2): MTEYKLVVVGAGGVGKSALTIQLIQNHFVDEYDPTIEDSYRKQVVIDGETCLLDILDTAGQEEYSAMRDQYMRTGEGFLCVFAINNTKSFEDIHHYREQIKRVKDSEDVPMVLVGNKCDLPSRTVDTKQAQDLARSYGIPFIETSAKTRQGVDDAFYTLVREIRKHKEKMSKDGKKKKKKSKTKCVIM
Summary of the method: as §1

[4] = ratio of KD with respect to HRAS wild-type protein to KD with respect to KRAS
[5] = 50% proliferation inhibitory concentration, four days
[6] = ratio of KD with respect to GDP-bound NRAS wild-type protein to KD with respect to KRAS
[7] = Single Cycle Kinetics, 1:1 binding model
[8] = ratio of KD for HRAS wild-type protein to KD for KRAS
[9] = ratio of KD for GDP-bound NRAS wild-type protein to KD for KRAS

Chain of HRAS wild-type protein (P01112 whole entry): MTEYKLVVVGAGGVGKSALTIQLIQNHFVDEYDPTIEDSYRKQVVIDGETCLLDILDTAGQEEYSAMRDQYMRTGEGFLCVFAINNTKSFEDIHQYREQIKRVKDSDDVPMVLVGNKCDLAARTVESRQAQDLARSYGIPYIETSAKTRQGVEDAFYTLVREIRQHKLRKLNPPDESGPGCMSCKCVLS

Row | Structure (SMILES) | IC50 [1, 5] | Kd [3, 7] | IC50 ([1]; NCI-H441 cells, 4 days) | Kd ([3]; Single Cycle Kinetics) | Kd ([3]; 1:1 binding model) | HRAS /KRAS (HRAS wild-type protein; [4]) | NRAS /KRAS [2, 6] | HRAS /KRAS (HRAS wild-type protein; [8]) | NRAS /KRAS [2, 9]
1 | CCO[C@@H]1C[C@H]2C(=O)NC3(CCC3)C(=O)N(C)[C@@H](C3CCCC3)C(=O)N(C)[C@H](C(=O)N3CCOCC3)CC(=O)N(C)[C@@H](CC)C(=O)N[C@@H]([C@@H](C)CC)C(=O)N3CC[C@H]3C(=O)N(C)[C@H]3CC[C@@H](C)CN(C3=O)[C@@H](Cc3ccc(C(F)(F)F)cc3)C(=O)N(C)CC(=O)N[C@@H](CCc3ccc(C(F)(F)F)c(Cl)c3)C(=O)N2C1 [PP1375] | 11.5 nM | 0.23 nM | – | – | – | B (a compound having 3 or more and less than 10 is denoted as B) | B (a compound having 3 or more and less than 10 is denoted as B) | – | –
2 | CCC[C@H]1C(=O)N[C@@H]([C@@H](C)CC)C(=O)N(C2CC2)CC(=O)N(C)[C@H]2C/C=C\CCN(C2=O)[C@@H](CC2CCC(F)(F)CC2)C(=O)N(C)CC(=O)N[C@@H](CCc2ccc(Cl)c(Cl)c2)C(=O)N2C[C@H](OC(C)C)C[C@H]2C(=O)NC2(CC(C)(C)C2)C(=O)N(C)[C@@H](C2CCCC2)C(=O)N(C)[C@H](C(=O)N(C)C)CC(=O)N1C [PP2521] | – | – | 129 nM | – | 2.8 nM | – | – | A (a compound having 10 or more and less than 20 is denoted as A) | A (a compound having 10 or more and less than 20 is denoted as A)
3 | CCOC[C@H]1C(=O)N[C@@H]([C@@H](C)CC)C(=O)N(C)CC(=O)N(C)[C@H]2C/C=C\CCN(C2=O)[C@@H](CC2CCC(F)(F)CC2)C(=O)N(C)CC(=O)N[C@@H](CCc2cc(F)c(C(F)(F)F)c(F)c2)C(=O)N2C[C@H](OCC)C[C@H]2C(=O)NC2(CC(C)(C)C2)C(=O)N(C)[C@@H](C(CC)CC)C(=O)N(C)[C@H](C(=O)N(C)C)CC(=O)N1C [PP2450] | – | – | 29.2 nM | – | 0.55 nM | – | – | A (a compound having 10 or more and less than 20 is denoted as A) | A (a compound having 10 or more and less than 20 is denoted as A)
4 | CCCO[C@@H]1C[C@H]2C(=O)NC3(CC(C)(C)C3)C(=O)N(C)[C@@H](C3CCCC3)C(=O)N(C)[C@H](C(=O)N(C)CC)CC(=O)N[C@@H](COCC)C(=O)N[C@@H]([C@@H](C)CC)C(=O)N3CCC[C@H]3C(=O)N(C)[C@H]3C/C=C\CCN(C3=O)[C@@H](Cc3ccc(C)cc3)C(=O)N(C)CC(=O)N[C@@H](CCc3ccc(C(F)(F)F)c(Cl)c3)C(=O)N2C1 [PP3431] | – | – | 79.5 nM | 3 nM | – | – | – | A (a compound having 10 or more and less than 20 is denoted as A) | A (a compound having 10 or more and less than 20 is denoted as A)
5 | CCO[C@@H]1C[C@H]2C(=O)NC3(CCC3)C(=O)N(C)[C@@H](C3CCCC3)C(=O)N(C)[C@H](C(=O)N(C)C)CC(=O)N(C)[C@@H](CC3CC3)C(=O)N[C@@H]([C@@H](C)CC)C(=O)N(C)CC(=O)N(C)[C@H]3C/C=C\CCN(C3=O)[C@@H](CC3CCCCC3)C(=O)N(C)CC(=O)N[C@@H](CCc3cc(F)c(C(F)(F)F)c(F)c3)C(=O)N2C1 [PP1446] | 32 nM | 0.2 nM | – | – | – | A (a compound having 10 or more and less than 20 is denoted as A) | A (a compound having 10 or more and less than 20 is denoted as A) | – | –
6 | CCCOC[C@@H]1NC(=O)C[C@@H](C(=O)N(C)CCC)N(C)C(=O)[C@H](C2CCCC2)N(C)C(=O)C2(CC(C)(C)C2)NC(=O)[C@@H]2C[C@@H](OCC)CN2C(=O)[C@H](CCc2ccc(C(F)(F)F)c(OC)c2)NC(=O)CN(C)C(=O)[C@H](Cc2ccc(C(F)(F)F)cc2)N2CC/C=C\C[C@@H](C2=O)N(C)C(=O)CN(C)C(=O)[C@H]([C@@H](C)CC)NC1=O [PP3449] | – | – | 31.9 nM | 0.25 nM | – | – | – | A (a compound having 10 or more and less than 20 is denoted as A) | A (a compound having 10 or more and less than 20 is denoted as A)
7 | CCC[C@H]1C(=O)N[C@@H]([C@@H](C)CC)C(=O)N(C)CC(=O)N(C)[C@H]2C/C=C\CCN(C2=O)[C@@H](CC2CCCCC2)C(=O)N(C)CC(=O)N[C@@H](CCc2cc(F)c(C(F)(F)F)c(F)c2)C(=O)N2C[C@H](OCC)C[C@H]2C(=O)NC2(CCC2)C(=O)N(C)[C@@H](C2CCCC2)C(=O)N(C)[C@H](C(=O)N(C)C)CC(=O)N1C [PP1464] | 32.3 nM | 0.15 nM | – | – | – | A (a compound having 10 or more and less than 20 is denoted as A) | A (a compound having 10 or more and less than 20 is denoted as A) | – | –
8 | CCO[C@@H]1C[C@H]2C(=O)NC3(CCC3)C(=O)N(C)[C@@H](C3CCCC3)C(=O)N(C)[C@H](C(=O)N(C)C)CC(=O)N(C)[C@@H](COC3CC3)C(=O)N[C@@H]([C@@H](C)CC)C(=O)N(C)CC(=O)N(C)[C@H]3C/C=C\CCN(C3=O)[C@@H](Cc3ccc(C(F)(F)F)cc3)C(=O)N(C)CC(=O)N[C@@H](CCc3cc(F)c(C(F)(F)F)c(F)c3)C(=O)N2C1 [PP1268] | 12.1 nM | 0.045 nM | – | – | – | A (a compound having 10 or more and less than 20 is denoted as A) | A (a compound having 10 or more and less than 20 is denoted as A) | – | –

The remaining molecules from weak to strong by IC50 ([1]; NCI-H441 cells, 4 days), led by results:

Row | IC50 [1, 5] | Kd [3, 7] | IC50 ([1]; NCI-H441 cells, 4 days) | Kd ([3]; Single Cycle Kinetics) | Kd ([3]; 1:1 binding model) | Structure (SMILES) | HRAS /KRAS (HRAS wild-type protein; [4]) | NRAS /KRAS [2, 6] | HRAS /KRAS (HRAS wild-type protein; [8]) | NRAS /KRAS [2, 9]
9 | – | – | 18.4 nM | 0.2 nM | – | CCO[C@@H]1C[C@H]2C(=O)NC3(CC(C)(C)C3)C(=O)N(C)[C@@H](C3CCCC3)C(=O)N(C)[C@H](C(=O)N(C)C)CC(=O)N[C@@H](CC3CC3)C(=O)N[C@@H]([C@@H](C)CC)C(=O)N(C)CC(=O)N(C)[C@H]3C/C=C\CCN(C3=O)[C@@H](Cc3ccc(C(F)(F)F)cc3)C(=O)N(C)CC(=O)N[C@@H](CCc3ccc(C(F)(F)F)c(OC)c3)C(=O)N2C1 [PP3448] | – | – | A (a compound having 10 or more and less than 20 is denoted as A) | A (a compound having 10 or more and less than 20 is denoted as A)
10 | – | – | 16.4 nM | 0.2 nM | – | CCCC[C@@H]1NC(=O)C[C@@H](C(=O)N(C)C)N(C)C(=O)[C@H](C2CCCC2)N(C)C(=O)C2(CC(C)(C)C2)NC(=O)[C@@H]2C[C@@H](OCC)CN2C(=O)[C@H](CCc2cc(F)c(C(F)(F)F)c(F)c2)NC(=O)CN(C)C(=O)[C@H](Cc2ccc(C(F)(F)F)cc2)N2CC/C=C\C[C@@H](C2=O)N(C)C(=O)CN(C)C(=O)[C@H]([C@@H](C)CC)NC1=O [PP3456] | – | – | A (a compound having 10 or more and less than 20 is denoted as A) | A (a compound having 10 or more and less than 20 is denoted as A)
11 | – | – | 14.3 nM | – | 0.18 nM | CC[C@H](C)[C@@H]1NC(=O)[C@H](COC)N(C)C(=O)C[C@@H](C(=O)N(C)C)N(C)C(=O)[C@H](C2CCCCC2)N(C)C(=O)C2(CC(C)(C)C2)NC(=O)[C@@H]2C[C@@H](OC(C)C)CN2C(=O)[C@H](CCc2cc(F)c(C(F)(F)F)c(F)c2)NC(=O)CN(C)C(=O)[C@H](Cc2ccc(C)cc2)N2CC/C=C\C[C@@H](C2=O)N(C)C(=O)CN(C)C1=O [PP2660] | – | – | A (a compound having 10 or more and less than 20 is denoted as A) | A (a compound having 10 or more and less than 20 is denoted as A)
12 | – | – | 12.1 nM | – | 0.27 nM | CCC[C@H]1C(=O)N[C@@H]([C@@H](C)CC)C(=O)N(C2CC2)CC(=O)N(C)[C@H]2C/C=C\CCN(C2=O)[C@@H](Cc2ccc(C)cc2)C(=O)N(C)CC(=O)N[C@@H](CCc2cc(F)c(C(F)(F)F)c(F)c2)C(=O)N2C[C@H](OC3CCC3)C[C@H]2C(=O)NC2(CC(C)(C)C2)C(=O)N(C)[C@@H](C2CCCC2)C(=O)N(C)[C@H](C(=O)N(C)C)CC(=O)N1C [PP2614] | – | – | A (a compound having 10 or more and less than 20 is denoted as A) | A (a compound having 10 or more and less than 20 is denoted as A)
13 | – | – | 10.3 nM | – | 0.093 nM | CCCO[C@H](C)[C@@H]1NC(=O)[C@H](CC(C)C)N(C)C(=O)C[C@@H](C(=O)N(C)C)N(C)C(=O)[C@H](C2CCCC2)N(C)C(=O)C2(CC(C)(C)C2)NC(=O)[C@@H]2C[C@H](C)CN2C(=O)[C@H](CCc2ccc(C(F)(F)F)c(OC)c2)NC(=O)CN(C)C(=O)[C@H](Cc2ccc(C)cc2)N2CC/C=C\C[C@@H](C2=O)N(C)C(=O)CN(C)C1=O [PP2415] | – | – | A (a compound having 10 or more and less than 20 is denoted as A) | AA (a compound having 20 or more is denoted as AA)
14 | – | – | 7.1 nM | 0.11 nM | – | CCC[C@H]1C(=O)N[C@@H]([C@@H](C)CC)C(=O)N2CC[C@H]2C(=O)N(C)[C@H]2C/C(F)=C\CCN(C2=O)[C@@H](Cc2ccc(C(F)(F)F)cc2)C(=O)N(C)CC(=O)N[C@@H](CCc2ccc(C(F)(F)F)c(OC)c2)C(=O)N2C[C@H](OCC)C[C@H]2C(=O)N(C)C2(CCC2)C(=O)N(C)[C@@H](C2CCCC2)C(=O)N(C)[C@H](C(=O)N(C)C)CC(=O)N1C [PP3529] | – | – | B (a compound having 3 or more and less than 10 is denoted as B) | B (a compound having 3 or more and less than 10 is denoted as B)
15 | – | – | 4.7 nM | 0.51 nM | – | CCO[C@@H]1C[C@H]2C(=O)OC3(CCC3)C(=O)N(C)[C@@H](C3CCCC3)C(=O)N(C)[C@H](C(=O)N(C)C)CC(=O)N(C)[C@@H]([C@@H](C)OC)C(=O)N[C@@H]([C@@H](C)CC)C(=O)N(C3CC3)CC(=O)N(C)[C@H]3C/C=C\CCN(C3=O)[C@@H](Cc3ccc(C)cc3)C(=O)N(C)CC(=O)N[C@@H](CCc3ccc(C(F)(F)F)c(OC)c3)C(=O)N2C1 [PP3393] | – | – | B (a compound having 3 or more and less than 10 is denoted as B) | A (a compound having 10 or more and less than 20 is denoted as A)
